Measured values from patent US6355799B1, “Substituted benzene compounds, process for their preparation, and herbicidal and defoliant compositions containing them” (ISK Americas Incorporated, priority 1997, dated 2002).

Tests used:
Format in all cases: in vivo
[1] = test system: upland rice (Oryza sp., var. Tebonnet, RICE); assay: Post-emerge test, crop safety; details: post-emerge, 14 days after application, rating scale 0-100
Procedure, shortened: (§1)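 Herbicidal damage is scored 0 (none) to 100 (complete plant death) two weeks after a simulated field spray. Rates span 15–1000 g ai/ha, delivered in acetone at 187 l/ha. For post-emergence treatments, plants have 2–3 leaves and the spray carries 0.25% v/v non-ionic surfactant.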

[2] = test system: field corn (Zea mays L., var. Dekalb 535, CORN); assay: Post-emerge test, crop safety; details: post-emerge, 14 days after application, rating scale 0-100
Procedure, shortened: as §1

[3] = test system: redroot pigweed (Amaranthus retroflexus, AMARE); assay: Pre-emerge test, greenhouse herbicide activity screening; details: rated 14 days after application, 0 = no damage, 100 = complete death
Procedure, shortened: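 Plants grown in 10 cm pots of sandy loam mix received acetone-dissolved compounds through a moving flat-fan nozzle. Doses ranged from 15 to 1000 g ai/ha. Pre-emerge pots were seeded one day earlier, post-emerge pots 8–21 days earlier. Fourteen days on, each pot was graded 0–100 for damage.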

[4] = test system: upland rice (Oryza sp., var. Tebonnet, RICE); assay: Pre-emerge test, crop safety; details: rated 14 days after application, 0 = no damage, 100 = complete death
Procedure, shortened: (§2)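 Sandy loam pots; pre-emerge: sown 1 d pre-spray, surface-watered after, then bottom-watered. Post-emerge: sown 8–21 d before, 2–3 leaf stage, + 0.25% v/v NIS, bottom-watered. Acetone, 187 l/ha track spray, 15–1000 g ai/ha. 0–100 injury score, day 14.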

[5] = test system: field corn (Zea mays L., var. Dekalb 535, CORN); assay: Pre-emerge test, crop safety; details: rated 14 days after application, 0 = no damage, 100 = complete death
Procedure, shortened: as §2

[6] = test system: large crabgrass (Digitaria sanguinalis, DIGSA); assay: Pre-emerge test, greenhouse herbicide activity screening; details: rated 14 days after application, 0 = no damage, 100 = complete death
Procedure, shortened: as §1

[7] = test system: barnyardgrass (Echinochloa crus-galli, ECHCG); assay: as above; details: rated 14 days after application, 0 = no damage, 100 = complete death
Procedure, shortened: as §1

[8] = test system: ivyleaf morningglory (Ipomoea hederacea, IPOHE); assay: as above; details: rated 14 days after application, 0 = no damage, 100 = complete death
Procedure, shortened: as §1

[9] = test system: lambsquarters (Chenopodium album, CHEAL); assay: as above; details: rated 14 days after application, 0 = no damage, 100 = complete death
Procedure, shortened: as §1

[10] = test system: sicklepod (Cassia obtusifolia, CASOB); assay: as above; details: rated 14 days after application, 0 = no damage, 100 = complete death
Procedure, shortened: as §1

[11] = test system: green foxtail (Setaria viridis, SETVI); assay: as above; details: rated 14 days after application, 0 = no damage, 100 = complete death
Procedure, shortened: as §1

[12] = test system: velvetleaf (Abutilon theophrasti, ABUTH); assay: as above; details: rated 14 days after application, 0 = no damage, 100 = complete death
Procedure, shortened: as §1

[13] = test system: common ragweed (Ambrosia artemisizfolia L., AMBEL); assay: as above; details: rated 14 days after application, 0 = no damage, 100 = complete death
Procedure, shortened: as §1

[14] = test system: johnsongrass (Sorghum halepense, SORHA); assay: as above; details: rated 14 days after application, 0 = no damage, 100 = complete death
Procedure, shortened: as §1

[15] = test system: redroot pigweed (Amaranthus retroflexus, AMARE); assay: Post-emerge test, greenhouse herbicide activity screening; details: post-emerge, 14 days after application, rating scale 0-100
Procedure, shortened: as §2

[16] = test system: large crabgrass (Digitaria sanguinalis, DIGSA); assay: as above; details: post-emerge, 14 days after application, rating scale 0-100
Procedure, shortened: as §2

[17] = test system: barnyardgrass (Echinochloa crus-galli, ECHCG); assay: as above; details: post-emerge, 14 days after application, rating scale 0-100
Procedure, shortened: as §2

[18] = test system: ivyleaf morningglory (Ipomoea hederacea, IPOHE); assay: as above; details: post-emerge, 14 days after application, rating scale 0-100
Procedure, shortened: as §2

[19] = test system: lambsquarters (Chenopodium album, CHEAL); assay: as above; details: post-emerge, 14 days after application, rating scale 0-100
Procedure, shortened: as §2

[20] = test system: sicklepod (Cassia obtusifolia, CASOB); assay: as above; details: post-emerge, 14 days after application, rating scale 0-100
Procedure, shortened: as §2

[21] = test system: green foxtail (Setaria viridis, SETVI); assay: as above; details: post-emerge, 14 days after application, rating scale 0-100
Procedure, shortened: as §2

[22] = test system: velvetleaf (Abutilon theophrasti, ABUTH); assay: as above; details: post-emerge, 14 days after application, rating scale 0-100
Procedure, shortened: as §2

[23] = test system: common ragweed (Ambrosia artemisizfolia L., AMBEL); assay: as above; details: post-emerge, 14 days after application, rating scale 0-100
Procedure, shortened: as §2

[24] = test system: johnsongrass (Sorghum halepense, SORHA); assay: as above; details: post-emerge, 14 days after application, rating scale 0-100
Procedure, shortened: as §2

COc1c(Cl)cc(F)c(-n2c(=O)cc(C(F)(F)F)n(C)c2=O)c1NC(=O)c1ccc(I)cc1 [2-66]
phytotoxicity rating RICE ([1]; 63 g ai/ha): 50
phytotoxicity rating RICE ([1]; 250 g ai/ha): 90
phytotoxicity rating CORN ([2]; 63 g ai/ha): 15
phytotoxicity rating CORN ([2]; 250 g ai/ha): 70
Pre-emerge Herbicidal Activity, phytotoxicity rating (0-100), AMARE ([3]; 63 g ai/ha): 100
Pre-emerge Herbicidal Activity, phytotoxicity rating (0-100), AMARE ([3]; 250 g ai/ha): 100
Pre-emerge phytotoxicity rating (0-100), crop damage, RICE ([4]; 63 g ai/ha): 10
Pre-emerge phytotoxicity rating (0-100), crop damage, RICE ([4]; 250 g ai/ha): 60
Pre-emerge phytotoxicity rating (0-100), crop damage, CORN ([5]; 63 g ai/ha): 0
Pre-emerge phytotoxicity rating (0-100), crop damage, CORN ([5]; 250 g ai/ha): 15
Pre-emerge Herbicidal Activity, phytotoxicity rating (0-100), DIGSA ([6]; 63 g ai/ha): 60
Pre-emerge Herbicidal Activity, phytotoxicity rating (0-100), DIGSA ([6]; 250 g ai/ha): 99
Pre-emerge Herbicidal Activity, phytotoxicity rating (0-100), ECHCG ([7]; 63 g ai/ha): 0
Pre-emerge Herbicidal Activity, phytotoxicity rating (0-100), ECHCG ([7]; 250 g ai/ha): 60
Pre-emerge Herbicidal Activity, phytotoxicity rating (0-100), IPOHE ([8]; 63 g ai/ha): 40
Pre-emerge Herbicidal Activity, phytotoxicity rating (0-100), IPOHE ([8]; 250 g ai/ha): 80
Pre-emerge Herbicidal Activity, phytotoxicity rating (0-100), CHEAL ([9]; 63 g ai/ha): 100
Pre-emerge Herbicidal Activity, phytotoxicity rating (0-100), CHEAL ([9]; 250 g ai/ha): 100
Pre-emerge Herbicidal Activity, phytotoxicity rating (0-100), CASOB ([10]; 63 g ai/ha): 35
Pre-emerge Herbicidal Activity, phytotoxicity rating (0-100), CASOB ([10]; 250 g ai/ha): 90
Pre-emerge Herbicidal Activity, phytotoxicity rating (0-100), SETVI ([11]; 63 g ai/ha): 95
Pre-emerge Herbicidal Activity, phytotoxicity rating (0-100), SETVI ([11]; 250 g ai/ha): 100
Pre-emerge Herbicidal Activity, phytotoxicity rating (0-100), ABUTH ([12]; 63 g ai/ha): 100
Pre-emerge Herbicidal Activity, phytotoxicity rating (0-100), ABUTH ([12]; 250 g ai/ha): 100
Pre-emerge Herbicidal Activity, phytotoxicity rating (0-100), AMBEL ([13]; 63 g ai/ha): 0
Pre-emerge Herbicidal Activity, phytotoxicity rating (0-100), AMBEL ([13]; 250 g ai/ha): 60
Pre-emerge Herbicidal Activity, phytotoxicity rating (0-100), SORHA ([14]; 63 g ai/ha): 20
Pre-emerge Herbicidal Activity, phytotoxicity rating (0-100), SORHA ([14]; 250 g ai/ha): 95
phytotoxicity rating AMARE ([15]; 63 g ai/ha): 100
phytotoxicity rating AMARE ([15]; 250 g ai/ha): 100
phytotoxicity rating DIGSA ([16]; 63 g ai/ha): 10
phytotoxicity rating DIGSA ([16]; 250 g ai/ha): 20
phytotoxicity rating ECHCG ([17]; 63 g ai/ha): 70
phytotoxicity rating ECHCG ([17]; 250 g ai/ha): 50
phytotoxicity rating IPOHE ([18]; 63 g ai/ha): 100
phytotoxicity rating IPOHE ([18]; 250 g ai/ha): 90
phytotoxicity rating CHEAL ([19]; 63 g ai/ha): 100
phytotoxicity rating CHEAL ([19]; 250 g ai/ha): 100
phytotoxicity rating CASOB ([20]; 63 g ai/ha): 100
phytotoxicity rating CASOB ([20]; 250 g ai/ha): 70
phytotoxicity rating SETVI ([21]; 63 g ai/ha): 90
phytotoxicity rating SETVI ([21]; 250 g ai/ha): 80
phytotoxicity rating ABUTH ([22]; 63 g ai/ha): 100
phytotoxicity rating ABUTH ([22]; 250 g ai/ha): 100
phytotoxicity rating AMBEL ([23]; 63 g ai/ha): 100
phytotoxicity rating AMBEL ([23]; 250 g ai/ha): 75
phytotoxicity rating SORHA ([24]; 63 g ai/ha): 10
phytotoxicity rating SORHA ([24]; 250 g ai/ha): 50
